The values below come from US20260235593A1, “FRET BIOSENSOR RECOMBINANT PROTEINS” (The Regents of the University of California, priority 2023, published 2026).

Type in all cases: cell-based
Experiment [1] deals with protein kinase A (PKA). The experiment can be described thus: FRET-based AKAR imaging of PKA activity in HeLa cells upon Fsk/IBMX stimulation. An excerpt: In order to generate KARs that are both bright and photostable, we replaced one of the FPs in the prototypic FRET-based A kinase activity reporter AKAR4 with the self-labeling protein tag HaloTag, which can be flexibly labeled with synthetic fluorophores in different spectral regions. Here, we used a specific green-yellow HaloTag fluorophore (NGD, Table 1)^[12]. To identify the best FRET acceptor for HaloTag^(NGD), we selected a panel of 12 different RFPs with different excitation and emission properties. Given that the FRET efficiency depends not only on the distance between the donor and the acceptor fluorophore, but also on their relative orientation[^13], we tested two different domain orientations (HaloTag-RFP or RFP-HaloTag) and two different linker lengths (flexible linker with 14 amino acids or EV linker with 116 amino acids^[14], FIG. 1A). […] The 48 biosensors were transfected into HeLa cells, the HaloTag labeled with NGD, and the cells stimulated with 50 i.iM forskolin (Fsk) and 100 i.iM 3-isobutyl-1-methylxanthine (IBMX, FIG. 1B). […] We used NGD to label cpHaloTag and measured their response upon Fsk/IBMX stimulation. […] We overexpressed the reporters in HeLa cells and monitored changes in PKA activity after stimulation with 50 tM Fsk and 100 tM IBMX. […] We additionally quantified the on and off kinetics of the biosensor. […]

Experiment [2] concerns the target T1, PKA (Homo sapiens, UniProt P17612).
T1 construct: endogenous in cells; host or cells: HEK293T; only the biosensors are transfected
The experiment in a line: Multiplexed biosensor imaging in HEK293T cells: PKA activity (red/far-red HaloTag-AKAR). As to conditions: HEK293T cells co-expressing yellow/far-red HaloTag-EKAR and red/far-red HaloTag-AKAR; 100 ng/mL hEGF; Fsk and 100 μM IBMX together; M H89. As to the method:
(§1) Cell culture and transfection HeLa and HEK293T cells were cultured in Dulbecco's modified Eagle medium (DMEM; Gibco) containing glucose (1 g/L) and supplemented with 10% (v/v) fetal bovine serum (Sigma-Aldrich) and 1% (v/v) penicillin-streptomycin (Pen-Strep; Sigma-Aldrich). NIH3T3 cells were cultured in DMEM (Gibco) containing glucose (1 g/L) and supplemented with 10% (v/v) fetal calf serum and 1% (v/v) Pen-Strep (Sigma-Aldrich). All cells were maintained in a humidified incubator at 37° C. with a 5% CO2 atmosphere. Before transfection, cells were plated onto sterile quartered 35-mm glass-bottomed dishes and grown to 50 to 70% confluence. Cells were then transfected using Lipofectamine 2000 (Invitrogen, HeLa) or PolyJet (SignaGen Laboratories, HEK293T and NIH3T3) and grown an additional 48 hours (HeLa, HEK293T) before imaging. NIH3T3 cells were changed to serum-free DMEM immediately before transfection, medium was changed to complete medium after 6 h. NIH3T3 cells were then serum-starved for 24 hours before imaging. HaloTag labeling was performed 24 h before imaging using synthetic fluorophores (Fluorophore-CA 500 nM, 24 h, 37° C.) in the respective medium. Synthetic fluorophores were kindly provided by Luke Lavis (Janelia Research Campus, JF669-CA, JFX646-CA and JF635) or Kai Johnsson (Max Planck Institute for Medical Research (Germany) and EPFL (Switzerland), NGD-CA). […]

Experiment [3] deals with ERK. The experiment in a line: Multiplexed biosensor imaging in HEK293T cells: ERK activity (yellow/far-red HaloTag-EKAR). The following applies: HEK293T cells co-expressing yellow/far-red HaloTag-EKAR and red/far-red HaloTag-AKAR; 100 ng/mL hEGF. Here is the method:
as §1

In the case of `O=S(=O)(NCCNC/C=C/c1ccc(Br)cc1)c1cccc2cnccc12` [H89], the “FRET/yellow emission ratio after addition of H89” value in experiment [1] (HeLa cells expressing RFP-HaloTag^(NGD) AKARs, H89 added after 8 minutes of Fsk/IBMX stimulation) is listed as “FRET/yellow emission ratio of most biosensors decreased”. Moreover, the “normalized FRET/donor ratio after addition of H89” value in experiment [1] (HeLa cells expressing YFP-HaloTag^(JF669) AKARs, after 50 μM Fsk and 100 μM IBMX) is on record as “reversible”. The PKA activity entry in experiment [2] is “decrease in PKA activity”.
As for `CC(C)Cn1c(=O)n(C)c(=O)c2[nH]cnc21` [IBMX, 3-isobutyl-1-methylxanthine], the PKA activity entry in experiment [2] was “rapid increase in PKA activity”.
Take `O=C(Nc1ccc2[nH]nc(-c3ccncc3)c2c1)[C@@H]1CCN(CC(=O)N2CCN(c3ccc(-c4ncccn4)cc3)CC2)C1` [SCH772984]: the ERK activity result in experiment [3] is given as “only decreased ERK activity”.
